# Columns and labels:
# EGFR^WT kinase = EGFR^WT kinase (Homo sapiens, UniProt P00533); assay: EGFR^WT kinase assay (ULight/PT66 TR-FRET); format: biochemical
# Outline: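 Enzyme preincubated 5 min with compound (11-point 3-fold series, duplicate), then ULight-JAK-1 (Tyr1023) peptide and ATP added at 4× stocks of 400 nM and 600 μM; 120 min reaction at room temperature. PT66 antibody TR-FRET read after 60 min; IC50 fitted from inhibition rates.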
# [1] = target: Ba/F3 HER2 A775_G776insYVMA cells (Homo sapiens, UniProt P04626, DUP772-775, cells depend on it); assay: Inhibition of cell proliferation, CTG method, Ba/F3 HER2 A775_G776insYVMA; format: cell-based; conditions: 72 hours, read-out: Ba/F3 HER2 A775-G776insYVMA IC50
# Outline: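 Ba/F3 HER2 A775_G776insYVMA cells in RPMI1640 with 10% FBS were plated at 3000 cells/well and treated directly with compound (top 10 μM, 4-fold, 9 concentrations, duplicates).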
# [2] = Pharmacokinetics in SD rats, single intravenous injection and oral administration; format: in vivo, SD rat; conditions: for AUC(0-inf) / AUC(0-t) / Vd / half-life / bioavailability / Cmax / Tmax: SD, rat, whole blood; for bioavailability: PO 10 mg/kg vs IV 3 mg/kg, read-out: F % (bioavailability)
# Outline: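 SD rats received a single IV or oral dose of a solution formulation; the oral group was fasted overnight (>12 hrs) and fed 2 hrs post-dose, the IV group not fasted. Blood and brain were sampled at set times and analysed by LC/MS; CL, Vd, T1/2, Cmax, Tmax, AUC, MRT and F % come from plasma concentration-time data.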
# [3] = NA: Exposure was too low to be counted
# [4] = PO 10 mg/kg, NA: Exposure was too low to be counted
# Sequence of Ba/F3 HER2 A775_G776insYVMA cells (P04626 with tags, fused parts or gaps DUP772-775): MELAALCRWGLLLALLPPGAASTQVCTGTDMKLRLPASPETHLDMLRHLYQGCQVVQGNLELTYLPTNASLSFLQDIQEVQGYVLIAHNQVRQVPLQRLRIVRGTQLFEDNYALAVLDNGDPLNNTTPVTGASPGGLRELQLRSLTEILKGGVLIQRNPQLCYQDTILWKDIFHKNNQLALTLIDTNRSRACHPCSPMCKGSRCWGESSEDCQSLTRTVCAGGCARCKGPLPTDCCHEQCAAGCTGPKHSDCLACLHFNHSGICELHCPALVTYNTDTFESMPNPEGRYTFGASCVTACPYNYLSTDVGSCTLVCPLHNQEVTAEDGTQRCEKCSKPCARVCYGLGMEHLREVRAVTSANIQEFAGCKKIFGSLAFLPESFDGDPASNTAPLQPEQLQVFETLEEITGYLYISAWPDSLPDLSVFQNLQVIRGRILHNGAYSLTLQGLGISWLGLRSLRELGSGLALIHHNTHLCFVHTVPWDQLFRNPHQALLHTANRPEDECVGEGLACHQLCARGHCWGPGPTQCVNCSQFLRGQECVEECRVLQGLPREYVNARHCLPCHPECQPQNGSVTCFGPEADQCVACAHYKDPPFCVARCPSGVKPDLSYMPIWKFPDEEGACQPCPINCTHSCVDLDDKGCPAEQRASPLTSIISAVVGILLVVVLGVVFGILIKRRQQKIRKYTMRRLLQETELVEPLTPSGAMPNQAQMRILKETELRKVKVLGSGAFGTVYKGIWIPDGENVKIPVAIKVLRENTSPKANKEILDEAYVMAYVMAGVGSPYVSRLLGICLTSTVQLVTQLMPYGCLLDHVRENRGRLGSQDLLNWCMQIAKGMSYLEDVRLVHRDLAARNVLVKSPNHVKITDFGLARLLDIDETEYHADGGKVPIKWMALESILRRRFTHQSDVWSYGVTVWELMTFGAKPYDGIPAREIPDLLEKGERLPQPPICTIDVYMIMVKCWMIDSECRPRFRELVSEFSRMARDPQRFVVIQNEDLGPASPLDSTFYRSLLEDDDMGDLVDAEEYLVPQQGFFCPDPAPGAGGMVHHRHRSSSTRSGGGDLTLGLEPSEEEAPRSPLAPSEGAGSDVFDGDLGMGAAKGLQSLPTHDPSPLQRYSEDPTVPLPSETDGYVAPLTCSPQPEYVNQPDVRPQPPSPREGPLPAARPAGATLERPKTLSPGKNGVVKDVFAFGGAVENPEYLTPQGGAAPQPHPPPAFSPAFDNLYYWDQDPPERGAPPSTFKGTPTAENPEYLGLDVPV
# Sequence of EGFR^WT kinase (P00533 25-1210): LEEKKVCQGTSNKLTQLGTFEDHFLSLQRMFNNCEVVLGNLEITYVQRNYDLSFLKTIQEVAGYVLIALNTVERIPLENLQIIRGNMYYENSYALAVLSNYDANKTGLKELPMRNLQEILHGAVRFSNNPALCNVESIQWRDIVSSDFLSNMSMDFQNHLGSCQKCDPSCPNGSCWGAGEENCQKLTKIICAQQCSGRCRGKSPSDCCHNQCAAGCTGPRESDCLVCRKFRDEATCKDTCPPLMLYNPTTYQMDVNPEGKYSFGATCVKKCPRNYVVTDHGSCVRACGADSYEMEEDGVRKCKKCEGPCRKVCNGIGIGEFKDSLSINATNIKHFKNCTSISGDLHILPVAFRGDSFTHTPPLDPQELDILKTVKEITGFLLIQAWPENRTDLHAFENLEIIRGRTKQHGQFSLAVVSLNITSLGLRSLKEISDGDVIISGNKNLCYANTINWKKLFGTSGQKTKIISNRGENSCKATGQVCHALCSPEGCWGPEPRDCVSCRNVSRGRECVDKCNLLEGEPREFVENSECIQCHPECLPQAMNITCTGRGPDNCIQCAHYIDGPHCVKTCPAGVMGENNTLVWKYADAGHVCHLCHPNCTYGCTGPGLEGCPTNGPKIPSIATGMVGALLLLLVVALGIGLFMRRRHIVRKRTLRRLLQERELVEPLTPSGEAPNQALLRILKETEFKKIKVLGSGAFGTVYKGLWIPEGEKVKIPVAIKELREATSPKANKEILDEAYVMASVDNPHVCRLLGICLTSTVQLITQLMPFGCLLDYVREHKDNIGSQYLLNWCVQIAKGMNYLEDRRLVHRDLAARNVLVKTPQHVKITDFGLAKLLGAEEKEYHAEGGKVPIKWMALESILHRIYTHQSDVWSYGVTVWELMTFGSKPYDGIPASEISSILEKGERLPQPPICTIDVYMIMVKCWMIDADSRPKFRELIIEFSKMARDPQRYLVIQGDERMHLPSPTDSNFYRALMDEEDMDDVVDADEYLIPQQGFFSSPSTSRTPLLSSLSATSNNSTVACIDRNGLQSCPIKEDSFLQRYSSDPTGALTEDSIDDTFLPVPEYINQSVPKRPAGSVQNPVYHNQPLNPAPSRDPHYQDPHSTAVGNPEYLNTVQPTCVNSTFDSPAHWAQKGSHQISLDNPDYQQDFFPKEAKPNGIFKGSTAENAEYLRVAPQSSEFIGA
IC50 (EGFR^WT kinase) [nM],GI50 [1] [nM],Cl_obs ([2]; IV 3 mg/kg) [mL/min/kg],AUC(0-inf) ([2]; IV 3 mg/kg) [ng·h/mL],AUC(0-t) ([2]; IV 3 mg/kg) [ng·h/mL],Vd ([2]; IV 3 mg/kg) [L/kg],half-life ([2]; IV 3 mg/kg) [h],"bioavailability [2, 3] [%]","AUC(0-inf) [2, 4] [ng·h/mL]","AUC(0-t) [2, 4] [ng·h/mL]","Cmax [2, 4] [ng/mL]","Tmax [2, 4] [h]","half-life [2, 4] [h]",Structure (SMILES)
< 10,< 1,52.1 ± 9.3,979 ± 161,968 ± 156,20.2 ± 2.6,4.5 ± 0.21,27.6 ± 6.8,902 ± 223,888 ± 221,65.7 ± 19.9,5.33 ± 2.89,3.69 ± 0.31,"COc1c(NC(=O)/C=C/[C@H]2CCCN2C)ccc2ncnc(Nc3ccc(OCc4ccccn4)c(Cl)c3)c12 [Example 4, (R,E)-N-(4-((3-chloro-4-(pyridin-2-ylmethoxy)phenyl)amino)-5-methoxyquinazolin-6-yl)-3-(1-methylpyrrolidin-2-yl)acrylamide]"
< 10,1 to 5,53.0 ± 6.7,955 ± 130,949 ± 128,18 ± 2.3,3.94 ± 0.18,34.9 ± 12.6,1110 ± 403,1100 ± 406,80.3 ± 30.5,5 ± 3.46,4.13 ± 0.57,"COCCCOc1c(NC(=O)/C=C/[C@H]2CCCN2C)ccc2ncnc(Nc3ccc(OCc4ccccn4)c(Cl)c3)c12 [Example 9, (R,E)-N-(4-((3-chloro-4-(pyridin-2-ylmethoxy)phenyl)amino)-5-(3-methoxypropoxy)quinazolin-6-yl)-3-(1-methylpyrrolidin-2-yl)acrylamide]"
< 10,< 1,54.0 ± 7.4,938 ± 134,914 ± 129,22.7 ± 2.4,4.86 ± 0.23,36.3 ± 3.4,1130 ± 106,1100 ± 107,95.3 ± 16.5,3.33 ± 3.21,4.63 ± 0.26,"CCN1CCC[C@@H]1/C=C/C(=O)Nc1ccc2ncnc(Nc3ccc(OCc4ccccn4)c(Cl)c3)c2c1OC [Example 29, (R,E)-N-(4-((3-chloro-4-(pyridin-2-ylmethoxy)phenyl)amino)-5-methoxyquinazolin-6-yl)-3-(1-ethylpyrrolidin-2-yl)acrylamide]"

# Source: patent US20240246934A1, “QUINAZOLINE-BASED COMPOUND, COMPOSITION, AND APPLICATION OF QUINAZOLINE-BASED COMPOUND” (BEIJING SCITECH-MQ PHARMACEUTICALS LIMITED, priority 2021, published 2024)
